ChEMBL document CHEMBL1909294, “Translating clinical findings into knowledge in drug safety evaluation--drug induced liver injury prediction system (DILIps)” (PLoS Comput Biol, 2011)

What was measured:
Hepatotoxicity [1] = test system: Hepatotoxicity;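 as to HepSE bilirubinemia: bilirubinemia hepatic side effect score drawn from the DILIps training data, a prediction system for drug-induced liver injury; call rule not given here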;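 as to HepSE hepatomegaly: hepatic side effect score for hepatomegaly, taken from the training set of the DILIps drug-induced liver injury prediction system; call rule not given here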;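 as to HepSE jaundice: Jaundice-related hepatic side-effect score drawn from the training data of the DILIps (drug-induced liver injury prediction system); call rule not given here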; as to HepSE liver disease: call rule not given here;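 as to HepSE liver fatty: hepatic side effect score for fatty liver, taken from the DILIps training set for predicting drug-induced liver injury; call rule not given here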;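 as to HepSE liver function tests abnormal: hepatic side effect score taken from the DILIps (drug-induced liver injury prediction system) training data, here covering abnormal liver function test findings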
Hepatotoxicity [2] = test system: Hepatotoxicity; remark: listed apart in the source;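 as to HepSE bilirubinemia: bilirubinemia hepatic side effect score drawn from the DILIps training data, a prediction system for drug-induced liver injury; call rule not given here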;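 as to HepSE hepatomegaly: hepatic side effect score for hepatomegaly, taken from the training set of the DILIps drug-induced liver injury prediction system; call rule not given here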;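 as to HepSE jaundice: Jaundice-related hepatic side-effect score drawn from the training data of the DILIps (drug-induced liver injury prediction system); call rule not given here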; as to HepSE liver disease: call rule not given here;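 as to HepSE liver fatty: hepatic side effect score for fatty liver, taken from the DILIps training set for predicting drug-induced liver injury; call rule not given here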;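 as to HepSE liver function tests abnormal: hepatic side effect score taken from the DILIps (drug-induced liver injury prediction system) training data, here covering abnormal liver function test findings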
Hepatotoxicity [3] = test system: Hepatotoxicity; remark: listed apart in the source;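 as to HepSE bilirubinemia: bilirubinemia hepatic side effect score drawn from the DILIps training data, a prediction system for drug-induced liver injury; call rule not given here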;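 as to HepSE hepatomegaly: hepatic side effect score for hepatomegaly, taken from the training set of the DILIps drug-induced liver injury prediction system; call rule not given here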;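 as to HepSE jaundice: Jaundice-related hepatic side-effect score drawn from the training data of the DILIps (drug-induced liver injury prediction system); call rule not given here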; as to HepSE liver disease: call rule not given here;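 as to HepSE liver fatty: hepatic side effect score for fatty liver, taken from the DILIps training set for predicting drug-induced liver injury; call rule not given here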;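 as to HepSE liver function tests abnormal: hepatic side effect score taken from the DILIps (drug-induced liver injury prediction system) training data, here covering abnormal liver function test findings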
Hepatotoxicity [4] = test system: Hepatotoxicity; remark: listed apart in the source;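 as to HepSE bilirubinemia: bilirubinemia hepatic side effect score drawn from the DILIps training data, a prediction system for drug-induced liver injury; call rule not given here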;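 as to HepSE hepatomegaly: hepatic side effect score for hepatomegaly, taken from the training set of the DILIps drug-induced liver injury prediction system; call rule not given here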;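 as to HepSE jaundice: Jaundice-related hepatic side-effect score drawn from the training data of the DILIps (drug-induced liver injury prediction system); call rule not given here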; as to HepSE liver disease: call rule not given here;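 as to HepSE liver fatty: hepatic side effect score for fatty liver, taken from the DILIps training set for predicting drug-induced liver injury; call rule not given here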;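 as to HepSE liver function tests abnormal: hepatic side effect score taken from the DILIps (drug-induced liver injury prediction system) training data, here covering abnormal liver function test findings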
Hepatotoxicity [5] = test system: Hepatotoxicity; remark: listed apart in the source; as to HepSE liver disease: call rule not given here
Hepatotoxicity [6] = test system: Hepatotoxicity; remark: listed apart in the source; as to HepSE liver disease: call rule not given here
Hepatotoxicity [7] = test system: Hepatotoxicity; remark: listed apart in the source
Hepatotoxicity [8] = test system: Hepatotoxicity; remark: listed apart in the source
Hepatotoxicity [9] = test system: Hepatotoxicity; remark: listed apart in the source
Hepatotoxicity [10] = test system: Hepatotoxicity; remark: listed apart in the source
Hepatotoxicity [11] = test system: Hepatotoxicity; remark: listed apart in the source
Hepatotoxicity [12] = test system: Hepatotoxicity; remark: listed apart in the source
Hepatotoxicity [13] = test system: Hepatotoxicity; remark: listed apart in the source
Hepatotoxicity [14] = test system: Hepatotoxicity; remark: listed apart in the source

SMILES	HepSE_hepatomegaly (Hepatotoxicity [1])	HepSE_liver fatty (Hepatotoxicity [2])	HepSE_cholelithiasis (Hepatotoxicity [3])	HepSE_liver function tests abnormal (Hepatotoxicity [4])	HepSE_liver disease (Hepatotoxicity [5])	HepSE_jaundice (Hepatotoxicity [6])	HepSE_bilirubinemia (Hepatotoxicity [7])	HepSE_cholecystitis (Hepatotoxicity [8])	HepSE_elevated liver function tests (Hepatotoxicity [9])	HepSE_hepatitis (Hepatotoxicity [10])	HepSE_hepatic necrosis (Hepatotoxicity [11])	HepSE_Combined Scores (Hepatotoxicity [12])	HepSE_hepatic failure (Hepatotoxicity [13])	HepSE_cirrhosis (Hepatotoxicity [14])	HepSE_liver function tests abnormal (Hepatotoxicity [4]; Liver)	HepSE_elevated liver function tests (Hepatotoxicity [9]; Liver)
CC[C@H]1OC(=O)[C@H](C)[C@@H](O[C@H]2C[C@@](C)(OC)[C@@H](O)[C@H](C)O2)[C@H](C)[C@@H](O[C@@H]2O[C@H](C)C[C@H](N(C)C)[C@H]2O)[C@](C)(O)C[C@@H](C)C(=O)[C@H](C)[C@@H](O)[C@]1(C)O [ERYTHROMYCIN]	0	0	0	0	0	0	0	0	0	1	0	1	0	0		
CN1CCC[C@@H]1CCO[C@](C)(c1ccccc1)c1ccc(Cl)cc1 [CLEMASTINE]	0	0	0		0	0	0	0		0	0	0	0	0	0	0
CCN(C)C(=O)Oc1cccc([C@H](C)N(C)C)c1 [RIVASTIGMINE]	0	0	1	0	0	0	0	1	0	0	0	2	0	0		
CCC(=O)O[C@@H](O[P@](=O)(CCCCc1ccccc1)CC(=O)N1C[C@H](C2CCCCC2)C[C@H]1C(=O)O)C(C)C [FOSINOPRIL]	1	0	0	0	0	1	0	0	0	1	0	4	1	0		
CC1Cc2ccccc2N1NC(=O)c1ccc(Cl)c(S(N)(=O)=O)c1 (configuration not stated) [INDAPAMIDE]	0	0	0	1	0	1	0	0	0	1	0	3	0	0		
CN(C)C(=O)Oc1ccc[n+](C)c1 [PYRIDOSTIGMINE]	0	0	0	0	0	0	0	0	0	0	0	0	0	0		
CN(C)S(=O)(=O)c1ccc2c(c1)N(CCCN1CCC(CCO)CC1)c1ccccc1S2 [PIPOTIAZINE]	0	0	0	0	0	1	0	0	0	0	0	1	0	0		
CC(=O)O.NCc1ccc(S(N)(=O)=O)cc1 [MAFENIDE ACETATE]	0	0	0	0	0	0	0	0	0	0	0	0	0	0		
Cc1ccccc1N1C(=O)c2cc(S(N)(=O)=O)c(Cl)cc2NC1C (configuration not stated) [METOLAZONE]	0	0	0	0	0	1	0	0	0	1	0	2	0	0		
C[C@]12CC[C@H]3[C@@H](CCC4=CC(=O)CC[C@@H]43)[C@@H]1CC[C@@H]2O [NANDROLONE]	0	0	0	0	0	0	0	0	0	0	0	0	0	0		
Cc1cn([C@H]2C[C@H](N=[N+]=[N-])[C@@H](CO)O2)c(=O)[nH]c1=O [ZIDOVUDINE]	1	0	0	0	0	1	1	0	0	1	0	4	0	0		
CN(C)CC(c1ccc(O)cc1)C1(O)CCCCC1 (configuration not stated) [DESVENLAFAXINE]	0	0	0	0	0	0	0	0	0	0	0	0	0	0		
CC(C)(C)NC(=O)[C@H]1CC[C@H]2[C@@H]3CC[C@H]4NC(=O)C=C[C@]4(C)[C@H]3CC[C@]12C [FINASTERIDE]	0	0	0	0	0	0	0	0	0	0	0	0	0	0		
